Assay results taken from ChEMBL document CHEMBL1201862, “PubChem BioAssay data set” (2004).
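Assay format: 96-well plates, 48-hour exposure. Abbreviation: GI50, concentration required for 50% inhibition of growth.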 Active and inactive are the calls of the source. No stated cut-off is given here; in the data, active = GI50 up to about 1.1 µM and inactive = higher.

Legend:
Assay in all cases: growth of human tumour cells (NCI), 48 h
786-0 = test system: 786-0
A498 = test system: A498
A549 = test system: A549
ACHN = test system: ACHN
CAKI-1 = test system: CAKI-1
COLO 205 = test system: COLO 205
DU-145 = test system: DU-145
EKVX = test system: EKVX
HCC 2998 = test system: HCC 2998
HCT-116 = test system: HCT-116
HCT-15 = test system: HCT-15
HOP-62 = test system: HOP-62
HOP-92 = test system: HOP-92
HT-29 = test system: HT-29
Hs-578T = test system: Hs-578T
IGROV-1 = test system: IGROV-1
K562 = test system: K562
KM12 = test system: KM12
LOX IMVI = test system: LOX IMVI
M14 = test system: M14
MCF7 = test system: MCF7
MDA-MB-435 = test system: MDA-MB-435
MDA-N = test system: MDA-N
Malme-3M = test system: Malme-3M
NCI-H226 = test system: NCI-H226
NCI-H23 = test system: NCI-H23
NCI-H460 = test system: NCI-H460
NCI-H522 = test system: NCI-H522
NCI/ADR-RES = test system: NCI/ADR-RES
OVCAR-3 = test system: OVCAR-3
OVCAR-4 = test system: OVCAR-4
OVCAR-5 = test system: OVCAR-5
OVCAR-8 = test system: OVCAR-8
PC-3 = test system: PC-3
SF-268 = test system: SF-268
SF-295 = test system: SF-295
SF-539 = test system: SF-539
SK-MEL-28 = test system: SK-MEL-28
SK-MEL-2 = test system: SK-MEL-2
SK-MEL-5 = test system: SK-MEL-5
SK-OV-3 = test system: SK-OV-3
SN12C = test system: SN12C
SNB-19 = test system: SNB-19
SNB-75 = test system: SNB-75
SR = test system: SR
SW-620 = test system: SW-620
T47D = test system: T47D
TK-10 = test system: TK-10
U-251 = test system: U-251
UACC-257 = test system: UACC-257
UACC-62 = test system: UACC-62
HL-60 = test system: HL-60
MDA-MB-231 = test system: MDA-MB-231
MOLT-4 = test system: MOLT-4
RPMI-8226 = test system: RPMI-8226
RXF 393 = test system: RXF 393
UO-31 = test system: UO-31

With `CCOC(=O)CCC1(CCC(=O)OCC)CCCCCCCCC(CCC(=O)OCC)(CCC(=O)OCC)C(=O)C1=O` the GI50 (786-0) was > 100 µM (inactive), the GI50 (A498) was > 100 µM (inactive) and the GI50 (A549) was > 100 µM (inactive). The GI50 (ACHN) was > 100 µM (inactive), the GI50 (CAKI-1) was > 100 µM (inactive) and the GI50 (COLO 205) was > 100 µM (inactive). The GI50 (DU-145) was > 100 µM (inactive), the GI50 (EKVX) was > 100 µM (inactive) and the GI50 (HCC 2998) was > 100 µM (inactive). The GI50 (HCT-116) was > 100 µM (inactive), the GI50 (HCT-15) was > 100 µM and the GI50 (HOP-62) was > 100 µM (inactive). For the same molecule, the GI50 (HOP-92) was > 100 µM (inactive), the GI50 (HT-29) was > 100 µM (inactive) and the GI50 (Hs-578T) was > 100 µM (inactive). The GI50 (IGROV-1) was > 100 µM (inactive), the GI50 (K562) was > 100 µM (inactive) and the GI50 (KM12) was > 100 µM (inactive). The GI50 (LOX IMVI) was > 100 µM (inactive), the GI50 (M14) was > 100 µM (inactive) and the GI50 (MCF7) was > 100 µM (inactive). For the same molecule, the GI50 (MDA-MB-435) was > 100 µM (inactive), the GI50 (MDA-N) was > 100 µM (inactive) and the GI50 (Malme-3M) was > 100 µM (inactive). For the same molecule, the GI50 (NCI-H226) was > 100 µM (inactive), the GI50 (NCI-H23) was > 100 µM (inactive) and the GI50 (NCI-H460) was > 100 µM (inactive). For the same molecule, the GI50 (NCI-H522) was 35.5 µM (inactive), the GI50 (NCI/ADR-RES) was > 100 µM (inactive) and the GI50 (OVCAR-3) was > 100 µM (inactive). For the same molecule, the GI50 (OVCAR-4) was > 100 µM (inactive), the GI50 (OVCAR-5) was > 100 µM (inactive) and the GI50 (OVCAR-8) was > 100 µM (inactive). The GI50 (PC-3) was > 100 µM (inactive), the GI50 (SF-268) was > 100 µM (inactive) and the GI50 (SF-295) was > 100 µM (inactive). The GI50 (SF-539) was > 100 µM (inactive), the GI50 (SK-MEL-28) was > 100 µM (inactive) and the GI50 (SK-MEL-2) was > 100 µM (inactive). For the same molecule, the GI50 (SK-MEL-5) was > 100 µM (inactive), the GI50 (SK-OV-3) was > 100 µM (inactive) and the GI50 (SN12C) was > 100 µM (inactive). For the same molecule, the GI50 (SNB-19) was > 100 µM (inactive), the GI50 (SNB-75) was 82.8 µM (inactive) and the GI50 (SR) was > 100 µM (inactive). For the same molecule, the GI50 (SW-620) was > 100 µM (inactive), the GI50 (T47D) was 79.1 µM (inactive) and the GI50 (TK-10) was > 100 µM (inactive). For the same molecule, the GI50 (U-251) was > 100 µM (inactive), the GI50 (UACC-257) was > 100 µM (inactive) and the GI50 (UACC-62) was > 100 µM (inactive).

With `C=C1CCCCCCCCC/C=C/1SCCCSC` the GI50 (786-0) was > 100 µM (inactive), the GI50 (A498) was > 100 µM (inactive) and the GI50 (A549) was > 100 µM (inactive). For the same molecule, the GI50 (ACHN) was > 100 µM (inactive), the GI50 (CAKI-1) was > 100 µM (inactive) and the GI50 (COLO 205) was > 100 µM (inactive). The GI50 (DU-145) was > 100 µM (inactive), the GI50 (EKVX) was > 100 µM (inactive) and the GI50 (HCC 2998) was > 100 µM (inactive). The GI50 (HCT-116) was > 100 µM (inactive), the GI50 (HCT-15) was > 100 µM and the GI50 (HL-60) was > 100 µM (inactive). The GI50 (HOP-62) was > 100 µM (inactive), the GI50 (HOP-92) was > 100 µM (inactive) and the GI50 (HT-29) was > 100 µM (inactive). The GI50 (Hs-578T) was > 100 µM (inactive), the GI50 (IGROV-1) was > 100 µM (inactive) and the GI50 (K562) was > 100 µM (inactive). The GI50 (KM12) was > 100 µM (inactive), the GI50 (LOX IMVI) was > 100 µM (inactive) and the GI50 (M14) was > 100 µM (inactive). For the same molecule, the GI50 (MCF7) was > 100 µM (inactive), the GI50 (MDA-MB-231) was > 100 µM (inactive) and the GI50 (MDA-MB-435) was > 100 µM (inactive). For the same molecule, the GI50 (MDA-N) was > 100 µM (inactive), the GI50 (MOLT-4) was > 100 µM (inactive) and the GI50 (Malme-3M) was > 100 µM (inactive). The GI50 (NCI-H226) was > 100 µM (inactive), the GI50 (NCI-H23) was > 100 µM (inactive) and the GI50 (NCI-H460) was > 100 µM (inactive). For the same molecule, the GI50 (NCI-H522) was > 100 µM (inactive), the GI50 (NCI/ADR-RES) was > 100 µM (inactive) and the GI50 (OVCAR-3) was > 100 µM (inactive). For the same molecule, the GI50 (OVCAR-4) was > 100 µM (inactive), the GI50 (OVCAR-5) was > 100 µM (inactive) and the GI50 (OVCAR-8) was > 100 µM (inactive). The GI50 (PC-3) was > 100 µM (inactive), the GI50 (RPMI-8226) was > 100 µM (inactive) and the GI50 (RXF 393) was > 100 µM (inactive). The GI50 (SF-268) was > 100 µM (inactive), the GI50 (SF-295) was > 100 µM (inactive) and the GI50 (SF-539) was > 100 µM (inactive). The GI50 (SK-MEL-28) was > 100 µM (inactive), the GI50 (SK-MEL-2) was > 100 µM (inactive) and the GI50 (SK-MEL-5) was > 100 µM (inactive). The GI50 (SK-OV-3) was > 100 µM (inactive), the GI50 (SN12C) was > 100 µM (inactive) and the GI50 (SNB-19) was > 100 µM (inactive). The GI50 (SR) was > 100 µM (inactive), the GI50 (SW-620) was > 100 µM (inactive) and the GI50 (T47D) was > 100 µM (inactive). For the same molecule, the GI50 (TK-10) was > 100 µM (inactive), the GI50 (U-251) was > 100 µM (inactive) and the GI50 (UACC-257) was > 100 µM (inactive). For the same molecule, the GI50 (UACC-62) was > 100 µM (inactive) and the GI50 (UO-31) was > 100 µM (inactive).
